Assay results taken from BindingDB's records for doi:10.1016/j.bmcl.2007.10.088 (University of Minnesota Minneapolis, 2008).

molecular target: Bcl-xL (Homo sapiens); experiment: Inhibition of Bak peptide binding to human recombinant Bcl-Xl

| SMILES | Ki [µM] |
| --- | --- |
| CCOC(=O)[C@H](Cc1ccccc1)N1C(=O)/C(=C/c2ccc(OCOc3ccc(/C=C4\SC(=S)N([C@@H](Cc5ccccc5)C(=O)OCC)C4=O)cc3)cc2)SC1=S | 58.4 |
| O=C(OCCOC(=O)[C@H](Cc1ccccc1)N1C(=O)/C(=C/c2ccc(Br)cc2)SC1=S)[C@H](Cc1ccccc1)N1C(=O)/C(=C/c2ccc(Br)cc2)SC1=S | 134 |
| O=C(O)[C@H](Cc1ccccc1)N1C(=O)/C(=C/c2ccc(OCCOc3ccc(/C=C4\SC(=S)N([C@@H](Cc5ccccc5)C(=O)O)C4=O)cc3)cc2)SC1=S | 0.97 |
